The subject of assay [1] is Phosphatidate Phosphohydrolase. Description: In vivo liver enzyme study: phosphatidate phosphohydrolase. The following applies: for Phosphatidate Phosphohydrolase: CF1 liver after 16 days i.p. The arrangement: species or system mouse. As to the method: (§1) In vitro enzymatic studies were determined using 10% homogenates of CF1 male mouse liver with 50-200 μM of test drugs. In vivo enzymatic studies were determined using 10% homogenates of liver from CF1 male mice obtained after administering the agents for 16 days at a dose ranging from 2.5-20 mg/kg/day intraperitoneally. The liver homogenates for both in vitro and in vivo studies were prepared in 0.25M sucrose and 0.001M (ethylenedinitrilo)tetraacetic acid. Acetyl coenzyme A synthetase and adenosine triphosphate dependent citrate lyase activities were determined spectrophotometrically at 540 nm as the hydroxylamate of acetyl coenzyme A formed after 30 min at 37° C. Mitochondrial citrate exchange was determined by the procedure of Robinson et al [Eur. J. Biochem., 216, 63 (1970)] using ^14 C-sodium bicarbonate (41 mCi/mmol) incorporated into mitochondrial ^14 C-citrate after isolating rat mitochondria (9000 g×10 min) from the homogenates. The exchanges of the ^14 C-citrate were determined after incubating the mitochondrial fraction which was loaded with labeled citrate and test drugs for 10 min. Then the radioactivity was measured in the mitochondrial and supernantant fractions in scintillation fluid and expressed as a percentage. Cholesterol side chain oxidation was determined by the method of Kritchevsky and Tepper [Artherosclerosis, 18, 93 (1973)] using (26-^14 C) cholesterol (50 mCi/mmol) and mitochondria isolated from rat liver homogenates. After 18 hr incubation at 37° C. with test drugs, the generated ^14 CO2 was trapped in the center well in {2-(2-(p-1,1,3,3,-tetramethylbutylcresoxy)ethoxy]ethyl } dimethylbenzylammonium hydroxide and counted. 3-Hydroxy-3-methylglutaryl coenzyme A reductase (HMG coenzyme A reductase) activity was measured using 1-^14 C-acetate (56 mCi/mmol) and a post-mitochondrial supernatant (9000 g×20 min) incubated for 60 min at 37° C. [Wada et al, J. Biochem. (Tokyo), 65 71 (1969)]. The digitonide derivative of cholesterol was isolated and counted. Acetyl coenzyme A carboxylase activity was measured by the method of Greenspan and Lowenstein [J. Biol. Chem., 243, 6273 (1968)]. […] Fatty acid synthetase activity was determined by the method of Brady et al [J. Biol. Chem., 235, 3093 (1960)] using [2-^14 C] malonyl-coenzyme A (37.5 mCi/mmol) which was incorporated into newly synthesized fatty acids that were extracted with ether and counted. Acyl transferase activity was determined with glycerol-3phosphate [L-2-^3 H(N)] […] HCl and counted. Phosphatidate phosphohydrolase activity was measured as the inorganic phosphate released after 30 min from phosphatidic acid by the method of Mavis et al [J. Lipid Res., 19, 467 (1978)]. The released inorganic phosphate after development with ascorbic acid and ammonium molybdate was determined at 820 nm. […]

Assay [2] addresses T1, ATP Dependent Citrate Lyase (Mus musculus, UniProt Q91V92).
T1 construct: 10% homogenates of CF1 male mouse liver; from tissue; host or cells: CF1 male mouse liver, 10% homogenate
T1 sequence (Q91V92 1-1091): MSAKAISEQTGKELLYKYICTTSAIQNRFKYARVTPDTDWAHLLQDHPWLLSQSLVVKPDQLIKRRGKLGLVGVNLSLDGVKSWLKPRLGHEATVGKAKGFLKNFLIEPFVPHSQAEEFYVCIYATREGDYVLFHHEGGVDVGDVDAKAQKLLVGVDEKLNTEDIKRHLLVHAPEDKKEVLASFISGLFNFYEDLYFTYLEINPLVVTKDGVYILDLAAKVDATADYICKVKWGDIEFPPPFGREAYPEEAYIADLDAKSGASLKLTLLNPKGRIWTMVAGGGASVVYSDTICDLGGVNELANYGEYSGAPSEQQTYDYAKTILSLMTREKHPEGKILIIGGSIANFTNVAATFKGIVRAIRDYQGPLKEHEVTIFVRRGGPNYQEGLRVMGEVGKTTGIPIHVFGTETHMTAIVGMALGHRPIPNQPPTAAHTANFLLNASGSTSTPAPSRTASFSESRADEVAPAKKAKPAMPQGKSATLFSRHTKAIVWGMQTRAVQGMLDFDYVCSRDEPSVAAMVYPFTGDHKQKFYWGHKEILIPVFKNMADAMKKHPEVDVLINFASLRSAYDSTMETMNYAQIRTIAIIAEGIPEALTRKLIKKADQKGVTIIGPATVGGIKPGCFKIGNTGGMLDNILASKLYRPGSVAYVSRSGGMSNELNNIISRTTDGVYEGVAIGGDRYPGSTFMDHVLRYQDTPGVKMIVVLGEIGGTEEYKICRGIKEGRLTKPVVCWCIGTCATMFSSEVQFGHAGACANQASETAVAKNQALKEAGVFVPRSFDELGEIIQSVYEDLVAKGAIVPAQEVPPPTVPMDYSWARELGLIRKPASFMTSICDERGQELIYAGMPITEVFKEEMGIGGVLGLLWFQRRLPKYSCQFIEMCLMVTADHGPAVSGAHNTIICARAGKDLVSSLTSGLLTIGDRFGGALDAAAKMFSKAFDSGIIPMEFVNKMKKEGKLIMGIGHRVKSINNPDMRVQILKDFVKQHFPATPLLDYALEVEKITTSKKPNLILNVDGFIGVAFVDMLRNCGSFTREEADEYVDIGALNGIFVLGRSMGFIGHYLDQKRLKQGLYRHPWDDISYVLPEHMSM
The assay is described as follows: In vivo liver enzyme study: ATP dependent citrate lyase. The following applies: CF1 liver after 16 days i.p. Here is the method:
as §1, with “homogenates.” for “homogenates. After 18 hr incubation at 37° C. with test drugs, the generated ^14 CO2 was trapped in the center well in {2-(2-(p-1,1,3,3,-tetramethylbutylcresoxy)ethoxy]ethyl } dimethylbenzylammonium hydroxide and counted. 3-Hydroxy-3-methylglutaryl coenzyme A reductase (HMG coenzyme A reductase) activity was measured using 1-^14 C-acetate (56 mCi/mmol) and a post-mitochondrial supernatant (9000 g×20 min) incubated for 60 min at 37° C. [Wada et al, J. Biochem. (Tokyo), 65 71 (1969)]. The digitonide derivative of cholesterol was isolated and counted. Acetyl coenzyme A carboxylase activity was measured by the method of Greenspan and Lowenstein [J. Biol. Chem., 243, 6273 (1968)].”, “(1978)].” for “(1978)]. The released inorganic phosphate after development with ascorbic acid and ammonium molybdate was determined at 820 nm.”

Consider “{Cu[(CH3)3 N.BH2 CO2 ]2.(CH3)3 N.BH2 COOH} [Compound I]”, for which the “Phosphatidate Phosphohydrolase” value is on record as 55 ± 5% of control in assay [1] (2.5 mg/kg), 53 ± 5% of control in assay [1] (5.0 mg/kg) and 18% of control in assay [1] (10 mg/kg). Besides, in assay [1] (in vivo, mice 16 days, 10 mg/kg/day), the “Phosphatidate Phosphohydrolase activity reduction” value worked out at 82%. For the same substance, the “ATP Dependent Citrate Lyase” value in assay [2] (2.5 mg/kg) was 70 ± 6% of control; in assay [2] (5.0 mg/kg), 79 ± 7% of control; in assay [2] (10 mg/kg) it was 72 ± 7% of control.

Source of the values: patent publication US4550186A, “Binuclear copper (II) carboxylates formed from amine-carboxyboranes” (Duke University, priority 1983, dated 1985).
